Measurements from patent publication US20250368627A1, “PYRAZOLESULFONAMIDES AS ANTITUMOR AGENTS” (Peloton Therapeutics, Inc., a fully owned subsidiary of …, priority 2019, published 2025).
One block for each compound: values may come before it.

Experiments:
[1] = target: T1, DDB1DB/DCAF15 and RBM39 R1R2 complex (Homo sapiens, UniProt Q14498+Q66K64); experiment: DCAF15 RBM39 Complex Formation Assay (FRET); format: binding; conditions: FRET ratio Em 665/Em 615, incubated overnight at 4° C.
T1 construct: Amino acids 150 to 331 of RBM39 were cloned into pGEX4T3; GST (from vector pGEX4T3); TEV cleavage site (N); made in house; host or cells: DDB1DB/His-DCAF15: baculovirus/Sf9 co-expression; RBM39 R1R2: E. coli (pGEX4T3)
Method in brief: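 Ternary complex formation read by TR-FRET (Em 665/615, excitation 340 nm) after overnight incubation at 4° C of 20 nM baculovirus DDB1DB/His-DCAF15 and 50 nM E. coli RBM39 RRM1-RRM2 FLAG fragment with 14-point, 3-fold compound dilutions from 1 μM; EC50 from 4-parameter fit.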

[2] = test system: HCT116 colorectal carcinoma cells; experiment: In vivo efficacy study, HCT116 xenograft; parameters: species or system Athymic Nude mice; conditions: for Body Weight (g) Mean ± SEM / Tumor Volume (mm^3) Mean ± SEM / Tumor Weight (g) Mean ± SD: HCT116 xenograft mice; for body weight versus vehicle group / reduction of tumor volume and tumor weight: HCT116 mouse model, compound 3 100 mg/kg BID, compound 136 30 mg/kg BID, 12 days; for reduction of tumor volume and tumor weight: versus vehicle
From the text: Compound 3 were formulated with 10% absolute ethanol, 30% PEG400, 60% water containing 0.5% methyl cellulose and 0.5% Tween80®. 2×10^6 HCT116 colorectal carcinoma cells (ATCC® CCL-247) in PBS and Matrigel (1:1 in volume) were inoculated subcutaneously in the right flank of Athymic Nude mice at 6-7 weeks of age for tumor development. When the xenografts reached about 150 mm^3 in size, the tumor bearing mice were randomly grouped into six groups (n=6) and treated by oral gavage with vehicle (10% absolute ethanol, 30% PEG400, 60% water containing 0.5% methyl cellulose and 0.5% Tween80®, BID) or compound 3 at 100 mg/kg BID for 12 days. Tumor sizes were measured twice weekly in two dimensions using a caliper and the volume were expressed in mm^3 using the formula V=0.5×a×b^2 wherein a and b were the long and short diameters of the tumor, respectively. The efficacy study for compound 136 was carried out in the same manner as that of compound 3 except compound 136 was dosed at 30 mg/kg BID for 12 days.

[3] = test system: HCT116 human colorectal carcinoma cells; experiment: CellTiter-Glo Luminescent Cell Viability Assay; format: cell-based; conditions: HCT-116, 72 h, 3 days
Method in brief: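 HCT116 cells were exposed for 3 days to compound in triplicate at final concentrations of 5 to 0.0002 […] (1:3 dilutions). Viability was read by CellTiter-Glo luminescence, and IC50 values were calculated.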

[4] = cited from earlier work
[5] = cited from earlier work; for treatment-induced myelosuppressive effect: clinical dosing, indisulam 700 mg/m^2 IV every 3 weeks, E7820 100 mg q.d. oral; for oral bioavailability: in vivo
[6] = 100 mg/kg BID oral gavage for 12 days
[7] = 30 mg/kg BID oral gavage for 12 days

T1 sequence (Q66K64 whole entry, the tested form may be a part): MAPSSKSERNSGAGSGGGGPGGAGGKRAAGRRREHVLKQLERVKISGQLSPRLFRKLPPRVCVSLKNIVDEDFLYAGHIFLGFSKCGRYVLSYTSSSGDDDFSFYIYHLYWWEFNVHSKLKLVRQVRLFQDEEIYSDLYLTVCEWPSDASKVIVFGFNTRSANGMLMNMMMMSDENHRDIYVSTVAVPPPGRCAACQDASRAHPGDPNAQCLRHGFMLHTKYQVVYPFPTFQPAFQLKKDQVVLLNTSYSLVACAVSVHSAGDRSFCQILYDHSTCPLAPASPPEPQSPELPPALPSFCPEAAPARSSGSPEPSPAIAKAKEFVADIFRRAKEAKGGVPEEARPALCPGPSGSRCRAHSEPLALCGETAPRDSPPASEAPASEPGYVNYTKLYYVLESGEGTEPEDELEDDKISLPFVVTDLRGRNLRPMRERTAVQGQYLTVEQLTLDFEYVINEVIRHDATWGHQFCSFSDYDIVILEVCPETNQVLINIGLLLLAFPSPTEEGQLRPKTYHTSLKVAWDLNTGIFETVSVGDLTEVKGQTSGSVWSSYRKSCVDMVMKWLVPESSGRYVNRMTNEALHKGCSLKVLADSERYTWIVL
T1 sequence (Q14498 150-331): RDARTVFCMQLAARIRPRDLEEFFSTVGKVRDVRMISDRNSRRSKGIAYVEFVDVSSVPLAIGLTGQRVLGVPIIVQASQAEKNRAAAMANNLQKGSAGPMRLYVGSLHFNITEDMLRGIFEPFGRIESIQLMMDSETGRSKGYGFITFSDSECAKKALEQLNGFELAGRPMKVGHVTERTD
T1 sequence (Q16531 with tags, fused parts or gaps DEL396-708 partner): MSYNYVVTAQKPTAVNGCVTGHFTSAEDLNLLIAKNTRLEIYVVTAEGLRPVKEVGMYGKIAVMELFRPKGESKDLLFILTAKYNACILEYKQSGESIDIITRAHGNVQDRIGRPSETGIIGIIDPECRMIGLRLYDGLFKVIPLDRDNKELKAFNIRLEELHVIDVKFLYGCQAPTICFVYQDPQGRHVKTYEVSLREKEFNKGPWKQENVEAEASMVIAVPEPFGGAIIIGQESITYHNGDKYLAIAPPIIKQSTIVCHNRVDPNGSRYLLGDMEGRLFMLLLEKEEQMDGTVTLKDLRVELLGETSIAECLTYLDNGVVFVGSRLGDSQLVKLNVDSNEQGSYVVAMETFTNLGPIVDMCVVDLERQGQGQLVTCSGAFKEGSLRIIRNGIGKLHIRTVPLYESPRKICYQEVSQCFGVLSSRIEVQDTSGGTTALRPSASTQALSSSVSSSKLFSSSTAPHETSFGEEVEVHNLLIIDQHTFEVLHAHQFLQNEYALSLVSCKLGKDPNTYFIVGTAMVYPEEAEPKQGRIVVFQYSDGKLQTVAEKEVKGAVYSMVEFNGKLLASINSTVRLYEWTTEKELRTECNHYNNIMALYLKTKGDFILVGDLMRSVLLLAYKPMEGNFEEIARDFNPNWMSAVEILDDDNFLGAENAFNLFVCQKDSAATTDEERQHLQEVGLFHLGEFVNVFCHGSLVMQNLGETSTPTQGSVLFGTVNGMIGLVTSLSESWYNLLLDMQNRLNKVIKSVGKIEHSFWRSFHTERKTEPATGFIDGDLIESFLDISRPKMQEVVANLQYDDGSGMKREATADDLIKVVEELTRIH

Structure (SMILES): Cc1ccc(NS(=O)(=O)c2cnn(C)c2)c2[nH]cc(C#N)c12 [Compound 3, N-(3-cyano-4-methyl-1H-indol-7-yl)-1-methyl-pyrazole-4-sulfonamide]
IC50 [1]: < 250 nM | Body Weight (g) Mean ± SEM [2, 6]: 22.44 ± 0.16 g | Tumor Volume (mm^3) Mean ± SEM [2, 6]: 122.9 ± 33.9 mm^3 | Tumor Weight (g) Mean ± SD [2, 6]: .013 ± 0.005 g | body weight versus vehicle group [2]: no significant difference | reduction of tumor volume and tumor weight [2]: statistically significant reduction | EC50 [3]: 250 to 1000 nM

Structure (SMILES): CC(C)(O)Cn1cc(S(=O)(=O)Nc2ccc(Cl)c3c(C#N)c[nH]c23)cn1 [Compound 136, N-(4-chloro-3-cyano-1H-indol-7-yl)-1-(2-hydroxy-2-methyl-propyl)pyrazole-4-sulfonamide]
IC50 [1]: < 250 nM | Body Weight (g) Mean ± SEM [2, 7]: 21.4 ± 0.14 g | Tumor Volume (mm^3) Mean ± SEM [2, 7]: 175.7 ± 12.3 mm^3 | Tumor Weight (g) Mean ± SD [2, 7]: .083 ± 0.06 g | body weight versus vehicle group [2]: no significant difference | reduction of tumor volume and tumor weight [2]: statistically significant reduction | EC50 [3]: 250 to 1000 nM

Structure (SMILES): Cn1ncc(S(=O)(=O)Nc2ccc(Cl)c3c(C#N)n[nH]c23)c1N [Compound 307, 5-amino-N-(4-chloro-3-cyano-1H-indazol-7-yl)-1-methyl-pyrazole-4-sulfonamide]
IC50 [1]: < 250 nM | EC50 [3]: > 1000 nM

Structure (SMILES): Cc1ccc(NS(=O)(=O)c2cnn(CF)c2N)c2[nH]cc(C#N)c12 [Compound 308, 5-amino-N-(3-cyano-4-methyl-1H-indol-7-yl)-1-(fluoromethyl)pyrazole-4-sulfonamide]
IC50 [1]: < 250 nM | EC50 [3]: 250 to 1000 nM

Structure (SMILES): Cc1ccc(NS(=O)(=O)c2cccc(C#N)c2)c2[nH]cc(C#N)c12 [Compound E7820, E7820]
measured drug concentration available (free drug) ([4]; according to the free drug principle): less than 1% | plasma protein binding [4]: greater than 99% | treatment-induced myelosuppressive effect [5]: same myelosuppressive effects | oral bioavailability [5]: good oral bioavailability

Structure (SMILES): NS(=O)(=O)c1ccc(S(=O)(=O)Nc2cccc3c(Cl)c[nH]c23)cc1 [Indisulam, indisulam]
treatment-induced myelosuppressive effect [5]: treatment-induced myelosuppressive effect | oral bioavailability [5]: poor oral bioavailability

Continued, values first:

IC50 [1]: < 250 nM | EC50 [3]: > 1000 nM
Structure (SMILES): N#Cc1c[nH]c2c(NS(=O)(=O)c3cnn(CF)c3N)ccc(F)c12 [Compound 309, 5-amino-N-(3-cyano-4-fluoro-1H-indol-7-yl)-1-(fluoromethyl)pyrazole-4-sulfonamide]

IC50 [1]: < 250 nM | EC50 [3]: 250 to 1000 nM
Structure (SMILES): N#Cc1c[nH]c2c(NS(=O)(=O)c3cnn([C@H](CO)CF)c3)ccc(Cl)c12 [Compound 311, N-(4-chloro-3-cyano-1H-indol-7-yl)-1-[(1R)-1-(fluoromethyl)-2-hydroxy-ethyl]pyrazole-4-sulfonamide]

IC50 [1]: < 250 nM | EC50 [3]: > 1000 nM
Structure (SMILES): N#Cc1c[nH]c2c(NS(=O)(=O)c3cnn(CF)c3N)cccc12 [Compound 312, 5-amino-N-(3-cyano-1H-indol-7-yl)-1-(fluoromethyl)pyrazole-4-sulfonamide]
